Measured values published in patent US10849985B2, “Method of targeting senescent cells” (Yeda Research and Development Co. Ltd., priority 2015, dated 2020).

Key:
cell-surface Grp94 = biological target: T1, cell-surface Grp94 (Homo sapiens, UniProt P14625); assay: Flow cytometry of cell-surface Grp94 on live IMR90 cells; assay type: cell-based; conditions: 3 days after etoposide treatment
T1 construct: cell-surface Grp94 of live senescent etoposide-treated IMR90 cells after 24 hrs treatment with 10 or 100 μM GPM1; endogenous in cells; host or cells: IMR-90 human fibroblasts (ATCC), made senescent with etoposide
T1 sequence (P14625 22-803): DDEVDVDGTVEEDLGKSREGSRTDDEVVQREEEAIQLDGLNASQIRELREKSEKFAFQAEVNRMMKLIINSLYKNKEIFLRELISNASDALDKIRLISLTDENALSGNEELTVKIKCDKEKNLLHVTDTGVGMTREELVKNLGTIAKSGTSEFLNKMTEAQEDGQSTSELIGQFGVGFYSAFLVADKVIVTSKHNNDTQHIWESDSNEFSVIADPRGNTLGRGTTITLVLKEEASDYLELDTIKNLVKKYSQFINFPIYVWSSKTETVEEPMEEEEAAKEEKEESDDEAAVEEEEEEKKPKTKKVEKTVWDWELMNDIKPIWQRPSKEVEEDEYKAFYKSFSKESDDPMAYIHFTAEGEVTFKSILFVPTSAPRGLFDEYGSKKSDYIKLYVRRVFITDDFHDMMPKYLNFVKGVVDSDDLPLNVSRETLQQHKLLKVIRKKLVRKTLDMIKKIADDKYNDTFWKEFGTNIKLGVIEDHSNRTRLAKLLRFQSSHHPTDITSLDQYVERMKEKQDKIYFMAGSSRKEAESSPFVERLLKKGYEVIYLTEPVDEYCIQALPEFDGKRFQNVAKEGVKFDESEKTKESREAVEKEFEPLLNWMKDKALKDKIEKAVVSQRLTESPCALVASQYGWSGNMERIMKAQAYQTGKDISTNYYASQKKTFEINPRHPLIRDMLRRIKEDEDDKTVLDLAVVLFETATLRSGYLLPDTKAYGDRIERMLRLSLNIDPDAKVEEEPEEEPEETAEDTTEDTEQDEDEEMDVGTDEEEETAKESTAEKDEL
Text: FIGS. 3A-F. Grp94 translocates to cell-surface of senescent cells. (A) Flow cytometry histogram for the frequency cell-surface Grp94 of live IMR90 cells 0, 3, 7, 14, or 21 days after etoposide treatment. (B) Quantitative analysis of cell-surface Grp94 on live IMR90 cells 0, 3, 7, 14, or 21 days after etoposide treatment. (C) Scheme describing the mechanism of GPM1-mediated blockage of Grp94 translocation to cell-surface. (D) PrestoBlue viability assay for IMR90 growing or senescent Etoposide-treated cells after 24 hrs treatment with 1, 10, or 100 μM GPM1. […] (E) Flow cytometry histogram for the frequency of cell-surface Grp94 of live senescent etoposide-treated IMR90 cells after 24 hrs treatment with 10 or 100 μM GPM1. (F) Quantitative analysis of cell-surface Grp94 on live senescent etoposide-treated IMR90 cells after 24 hrs treatment with 10 or 100 μM GPM1.
IMR-90 cells were gently dissociated from plates using TripLE express reagent (12604-013, Thermo Fisher Scientific), and maintained in cold FACS buffer (PBS containing 1% FCS and 0.1% Sodium Azid) throughout all procedure. […] Cells were analyzed in a SORP-LSRII instrument (BD Biosciences). […] Cells were gated by their size (FSC/SSC), DAPI negative (live cells) and then analyzed for their fluorescence intensity at the wavelength of 647 (cell-surface Grp94 level), using FlowJo v10 software.

cell surface Grp94 = assay: Cell-surface Grp94 of mouse embryonic fibroblasts; assay type: cell-based; conditions: MEFs 14 days after Etoposide treatment compared to growing MEFs
Experimental: FIGS. 4A-E. Extracellular Grp94 on senescent cells mediate cytotoxicity of innate components in-vitro. (A) Western blot analysis for Grp94/β-Tubulin in Etoposide-treated IMR90 cells 4 days after transfection with siControl or siHSP90B1 (HSP90B1 is a gene coding for Grp94). (B) PrestoBlue viability assay for Etoposide-treated IMR90 4 days after Transfection with siControl or siHSP90B1. (C) Cytotoxicity of NK92 cells in cultures of IMR90 cells treated with siControl or siHSP90B1. NK92 were added for 1 hour at a ratio of 1:3 (D) Crystal Violet staining for IMR90 cells after co-culturing with MM6 monocytes in the presence of GPM1. (E) Quantitative analysis of cell-surface Grp94 of Mouse embryonic fibroblasts (MEFs) 14 days after Etoposide treatment compared to growing MEFs.
The levels of cell surface Grp94 were also examined in mouse embryonic fibroblast cells (MEFs). […] The relatively high correlation between localization of Grp94 in human and mouse cells implies that it may serve as a new marker for senescent cells.

Q: Which results are given for `COc1cc([C@@H]2c3cc4c(cc3[C@@H](O[C@@H]3O[C@@H]5CO[C@@H](C)O[C@H]5[C@H](O)[C@H]3O)[C@H]3COC(=O)[C@H]23)OCO4)cc(OC)c1O` [etoposide]?
A: cell-surface Grp94 levels (cell-surface Grp94): not elevated; cell surface Grp94 (cell surface Grp94): significant elevation
